Where a name gives a salt, the structure may show the parent alone. Read-outs that look alike come from different tables or passages of the source.
What was measured:
[1] = Compound cytotoxicity (CC50), XTT-based colorimetric assay; format: cell-based; settings: human; uninfected MT2 cells, day 4, XTT assay
Description: Compound cytotoxicity and the corresponding CC50 values were determined using the same protocol as described in the antiviral assay except that uninfected cells were used. Cytotoxicity was assessed on day 4 in uninfected MT2 cells by using a XTT (2,3-bis[2-Methoxy-4-nitro-5-sulfophenyl]-2H-tetrazolium-5-carboxyanilide inner salt)-based colorimetric assay (Sigma-Aldrich, St Louis, Mo.).

[2] = test system: recombinant NL4-3 virus (nef section replaced with Renilla luciferase gene) in MT-2 cells; assay: whole plant or invertebrate; format: cell-based, HIV; settings: NL43, luciferase activity in MT-2 cells infected 4-5 days with recombinant NL4-3 virus
From the text: A recombinant NL4-3 proviral clone, in which a section of the nef gene was replaced with the Renilla luciferase gene, was used to make the reference virus used in these studies.
Supernatent was harvested after 2-3 days and the amount of virus present was titered in MT-2 cells using luciferase enzyme activity as a marker by measuring luciferase enzyme activity. Luciferase was quantitated using the EnduRen Live Cell Substrate from Promega (Madison, Wis.). Antiviral activities of compounds toward the recombinant virus were quantified by measuring luciferase activity in MT-2 cells infected for 4-5 days with the recombinant virus in the presence of serial dilutions of the compound.

Structure (SMILES)	CC50 at 4 day [1]	EC50 ([2]; read-out: Activity)	EC50 ([2]; read-out: EC50)
CCOc1cccc(-n2ccnc2[C@H](Cc2ccccc2)NC(=O)NS(=O)(=O)c2ccccc2C)c1 [Example 24, (S)-N-((1-(1-(3-ethoxyphenyl)-1H-imidazol-2-yl)-2-phenylethyl)carbamoyl)-2-methylbenzenesulfonamide]	> 100 µM	0.1 to 1 µM	0.6 µM
COC(=O)Nc1ccc(-n2ccnc2[C@@H](Cc2ccccc2)NC(=O)NS(=O)(=O)c2ccccc2C)cc1 [Example 39]	> 11 µM	> 1 µM	1.42 µM
COc1ccc(-n2ccnc2C(Cc2cc(F)cc(F)c2)NC(=O)NS(=O)(=O)c2ccccc2F)cc1 (racemic) [Example 84, (rac)-N-((2-(3,5-difluorophenyl)-1-(1-(4-methoxyphenyl)-1H-imidazol-2-yl)ethyl)carbamoyl)-2-fluorobenzenesulfonamide]	> 100 µM	0.1 to 1 µM	0.69 µM
COC(=O)Nc1ccc(-n2ccnc2[C@H](Cc2ccccc2)NC(=O)NS(=O)(=O)c2cccc3ccccc23)cc1 [Example 3, (S)-methyl (4-(2-(1-(3-(naphthalen-1-ylsulfonyl)ureido)-2-phenylethyl)-1H-imidazol-1-yl)phenyl)carbamate]	> 100 µM	0.1 to 1 µM	0.1 µM
Cc1ccccc1S(=O)(=O)NC(=O)N[C@H](Cc1cc(F)cc(F)c1)c1ncccc1-c1ccc(F)c(C(N)=O)c1 [Example 117, (R)-5-(2-(2-(3,5-difluorophenyl)-1-(3-(o-tolylsulfonyl)ureido)ethyl)pyridin-3-yl)-2-fluorobenzamide, TFA]	> 100 µM	> 1 µM	8.34 µM
Cc1ccccc1S(=O)(=O)NC(=O)N[C@@H](Cc1ccccc1)c1nccn1-c1cccc(Br)c1 [Example 20, (S)-N-((1-(1-(3-bromophenyl)-1H-imidazol-2-yl)-2-phenylethyl)carbamoyl)-2-methylbenzenesulfonamide]	> 33 µM	< 0.1 µM	–
Cc1ccccc1S(=O)(=O)NC(=O)N[C@@H](Cc1ccccc1)c1nccn1-c1ccc([N+](=O)[O-])cc1 [Example 33, (S)-2-methyl-N-((1-(1-(4-nitrophenyl)-1H-imidazol-2-yl)-2-phenylethyl)carbamoyl)benzenesulfonamide]	> 100 µM	0.1 to 1 µM	0.19 µM
COC(=O)Nc1ccc(-n2ccnc2[C@H](Cc2ccccc2)NC(=O)NS(=O)(=O)c2ccccc2Cl)cc1 [Example 36, (S)-methyl (4-(2-(1-(3-((2-chlorophenyl)sulfonyl)ureido)-2-phenylethyl)-1H-imidazol-1-yl)phenyl)carbamate]	> 100 µM	< 0.1 µM	0.06 µM
CCOC(=O)Nc1ccc(-n2ccnc2[C@H](Cc2ccccc2)NC(=O)NS(=O)(=O)c2ccccc2C)cc1 [Example 34, (S)-ethyl (4-(2-(2-phenyl-1-(3-(o-tolylsulfonyl)ureido)ethyl)-1H-imidazol-1-yl)phenyl)carbamate]	> 100 µM	< 0.1 µM	–
COc1ccc(-c2cccnc2C(Cc2cc(F)cc(F)c2)NC(=O)NS(=O)(=O)c2ccccc2Cl)cc1 (stereo in doubt) [Example 114, (S)-2-chloro-N-((2-(3,5-difluorophenyl)-1-(3-(4-methoxyphenyl)pyridin-2-yl)ethyl)carbamoyl)benzenesulfonamide, TFA]	> 100 µM	> 1 µM	34.4 µM
Cc1ccccc1S(=O)(=O)NC(=O)N[C@@H](Cc1cc(F)cc(F)c1)c1nccn1-c1ccc2c(c1)CCO2 [Example 82, (S)-N-((2-(3,5-difluorophenyl)-1-(1-(2,3-dihydrobenzofuran-5-yl)-1H-imidazol-2-yl)ethyl)carbamoyl)-2-methylbenzenesulfonamide]	> 100 µM	0.1 to 1 µM	–
Cc1ccccc1S(=O)(=O)NC(=O)NC(Cc1ccccc1)c1ncccc1-c1ccc(F)c(C(N)=O)c1 (centres unmarked) [Example 98, 2-fluoro-5-(2-(2-phenyl-1-(3-(o-tolylsulfonyl)ureido)ethyl)pyridin-3-yl)benzamide, TFA]	> 33 µM	0.1 to 1 µM	–

From patent US9855230B2 (ViiV Healthcare UK (No. 5) Limited, priority 2014, dated 2018)
